Data as given in paper PMC11643690, “Chelating Properties of N6O-Donors Toward Cu(II) Ions: Speciation in Aqueous Environments and Catalytic Activity of the Dinuclear Complexes” (Molecules, 2024).

Experiments:
[1] = Peroxidase-like (pro-oxidant) activity, OPD oxidation to DAP by H2O2; format: biochemical; settings: 3.2 μM complex or salt, 0.32 mM OPD, 24 mM H2O2, PBS pH 7.8, 18 h, 25 °C
Description: The pro-oxidant activity is named after another enzyme, the peroxidase. It is important to underline that this is a drawback of the studied complexes. Peroxidase, such as the already described […], decomposes hydrogen peroxide, producing water, but at the cost of oxidizing another substrate. Similarly, the complexes described here could remove hydrogen peroxide, catalyzing the oxidation of an organic substrate and leading to an enhancement of oxidative stress. Since all the catalytic measurements made so far were in the absence of an oxidizable substrate (excluding the catalyst itself), it is important to also verify this phenomenon. […] This variation in absorbance was monitored for 18 h via UV–Vis spectroscopy. […]
Figure S52: A) UV-vis spectra of [Cu2(L-RNH2)(H2O)2](ClO4)3 in a CAT assay measured every 10 minutes and centered at 450 nm. […] The arrow indicates the absorbance trend over time. B) Oxygen evolution (blue line) and absorbance at 244 nm (green dots) versus time.
For the peroxidase-like activity the variation of absorbance over time was monitored via UV-vis spectroscopy. The substrate OPD (o-phenylenediamine) was oxidized to DAP (2,3-diaminephenazine) by H2O2 in the presence of copper ions, leading to an increase of absorbance at 418 nm. […] The kinetic was recorded in a quartz cuvette with an optical path of 1 cm for 18h (acquiring a spectrum every 20 minutes) at 25°C. […]

[2] = UV–Vis titration of ligands with Cu(ClO4)2, binding constant by non-linear regression; settings: global formation constant β1,2 (1 ligand : 2 Cu(II)); 1 µM ligand, 5% v/v MeOH/BBS 50 mM, pH 7.4, 25 °C
Method: To determine the overall equilibrium constant β1,2 (Kbind), a solution of the ligand was titrated with aliquots of 0.2 equivalents of Cu(II). Monitoring the formation of the complex via UV–Vis spectroscopy, the absorbance around 260 nm, 300 nm, 450 nm, and 700 nm increased during the titration (Figure 3a) in all cases. The latter two bands are visible only at high concentrations (>0.1 mM). These changes are caused by the formation of the complex and the disappearance of the free ligand.
In Figure 3b, the linear increase in the absorbance change (ΔAbs) at 240 nm, upon an increase in Cu(II) amount, is evident, leading to a sharp plateau around 2 equivalents. […] The binding constants were determined by non-linear regression analysis of Equation (2), (2) ∆A/b=(K1∆A1Cu+ β1,2∆A2Cu^2)/1+K1Cu+ β1,2Cu^2 which traces the correlation “ΔAbs/b vs. Cu(II) concentration,” according to K. Connors. In this equation, ΔA is the differences in absorbance at a certain wavelength, b is the optical path (1 cm), K1 is the constant for the formation of the complex 1:1, and β1,2 is the global formation constant (Kbind) for the complex 1:2. ΔA1 and ΔA2 are the differences in absorbance due to the formation of the 1:1 complex and the 1:2 complex, respectively. […]
UV-vis spectra of ligands and complexes were recorded in a quartz cuvette, with 1 cm of optical path. […]

[3] = Potentiometric titration of the Cu(II)/L-CH3 system (constants of in situ-formed complexes); format: binding; settings: for logβi of in situ-formed Cu(II) complex species: overall constant, Cu(II):L 1:1 and 2:1, DMSO 5% (v/v)/H2O (HCl/KCl); for logKi of in situ-formed Cu(II) complex species: stepwise protonation constant
Method: The next step was the analysis of the system with L-CH3 and Cu(II). For a better investigation of the binging abilities of the L-CH3 ligand, the titration was performed both for the Cu(II):L-CH3 molar ratio = 1:1 and for 2:1. The overall (logβi) and stepwise (logKi) protonation constants of in situ-formed complexes are collected in Table 2. Depending on pH, L-CH3 forms mono- and di-nuclear complexes with Cu(II) ions, their relative abundance depending on the metal-to-ligand molar ratio.
Potentiometric measurements were carried out using the Metrohm pH-meter system (Herisau, Switzerland) with a Metrohm semi-micro combination electrode at 25 °C, calibrated in a hydrogen ion concentration using HCl. The ligands were dissolved in DMSO (5% v/v/H2O (HCl/KCl)) in order to obtain a concentration of 1 mM. The titrant (KOH 0.1M) was added with a micrometric syringe at 298 K in the pH range of 2.5–11.5 in an argon atmosphere. The stability constants and stoichiometry of the complexes were calculated using the titration curves and the SUPERQUAD and HYPERQUAD [47, 48].

[4] = cited from earlier work

Compound | logβi of in situ-formed Cu(II) complex species [3] | logKi of in situ-formed Cu(II) complex species [3] | further results
O.O.O.O.O.O.[Cu+2].[O-][Cl+3]([O-])([O-])[O-].[O-][Cl+3]([O-])([O-])[O-] [Cu(ClO4)2, copper perchlorate] | – | – | peroxidase-like (pro-oxidant) activity, Abs at 418 nm vs time [1]: much higher
NCCc1cc(CN(Cc2ccccn2)Cc2ccccn2)c(O)c(CN(Cc2ccccn2)Cc2ccccn2)c1 [HL-RNH2] | – | – | Kbind [2]: > 10^12 M^−2
Cc1cc(CN(Cc2ccccn2)Cc2ccccn2)c([O-])c(CN(Cc2ccccn2)Cc2ccccn2)c1.[Cu+2].[Cu+2] [[Cu2L]^3+] | 15.50 ± 0.03 | 9.26 | –
Cc1cc(CN(Cc2ccccn2)Cc2ccccn2)c(O)c(CN(Cc2ccccn2)Cc2ccccn2)c1.[Cu+2] [[CuHL]^2+] | 17.02 ± 0.03 | 6.82 | –
Cc1cc(CN(Cc2ccccn2)Cc2ccccn2)c([O-])c(CN(Cc2ccccn2)Cc2ccccn2)c1.[Cu+2] [[CuL]^+] | 10.20 ± 0.03 | 9.58 | –
Cu/Zn-SOD(human): native Cu/Zn superoxide dismutase enzyme | – | – | log(kSOD) [4]: 9.30
